Here are results for 17 compounds from patent US20100056526A1, “HETEROMONOCYCLIC COMPOUND AND USE THEREOF” (Takeda Pharmaceutical Company Limited, priority 2006, published 2010).

Experiment [1] concerns the target T1, human AT1 receptor (Homo sapiens, UniProt P30556).
T1 construct: expressed in transfected cells; host or cells: CHO-K1
T1 sequence (P30556 1-359): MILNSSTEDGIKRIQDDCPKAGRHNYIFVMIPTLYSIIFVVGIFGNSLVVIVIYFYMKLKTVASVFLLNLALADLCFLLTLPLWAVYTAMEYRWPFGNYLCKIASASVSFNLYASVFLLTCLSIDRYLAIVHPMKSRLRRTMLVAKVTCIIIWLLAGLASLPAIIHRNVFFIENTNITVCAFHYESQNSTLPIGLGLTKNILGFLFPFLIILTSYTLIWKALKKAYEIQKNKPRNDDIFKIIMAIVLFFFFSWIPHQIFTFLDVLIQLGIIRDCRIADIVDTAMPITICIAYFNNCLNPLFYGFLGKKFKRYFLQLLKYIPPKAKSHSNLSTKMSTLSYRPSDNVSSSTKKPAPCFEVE
The experiment is described as follows: Binding assay using human AT1 receptor-expressing CHO-K1 cell membrane fraction ([125I]-angiotensin II). The note with it: 22.5 pM [125I]-angiotensin II, 9 μg AT1 membrane, 1 hr room temperature; read-out: AT1 receptor binding inhibitory action (IC50 (nM)). The essentials:
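CHO-K1 membranes stably expressing AT1 (9 μg) incubated with 22.5 pM [125I]-angiotensin II and compound in 50 mM Tris pH 7.4, 10 mM MgCl2, with or without 0.3 mg/mL fatty acid-free BSA, 1 hr at room temperature. Bound radioactivity counted after GF/C filtration; nonspecific binding with 1 μM CV-11974; IC50 calculated.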

Experiment [2] concerns the target T2, PPARγ (Homo sapiens, UniProt P37231).
T2 construct: expressed in transfected cells; host or cells: CHO-K1
T2 sequence (P37231 1-477 isoform P37231-2): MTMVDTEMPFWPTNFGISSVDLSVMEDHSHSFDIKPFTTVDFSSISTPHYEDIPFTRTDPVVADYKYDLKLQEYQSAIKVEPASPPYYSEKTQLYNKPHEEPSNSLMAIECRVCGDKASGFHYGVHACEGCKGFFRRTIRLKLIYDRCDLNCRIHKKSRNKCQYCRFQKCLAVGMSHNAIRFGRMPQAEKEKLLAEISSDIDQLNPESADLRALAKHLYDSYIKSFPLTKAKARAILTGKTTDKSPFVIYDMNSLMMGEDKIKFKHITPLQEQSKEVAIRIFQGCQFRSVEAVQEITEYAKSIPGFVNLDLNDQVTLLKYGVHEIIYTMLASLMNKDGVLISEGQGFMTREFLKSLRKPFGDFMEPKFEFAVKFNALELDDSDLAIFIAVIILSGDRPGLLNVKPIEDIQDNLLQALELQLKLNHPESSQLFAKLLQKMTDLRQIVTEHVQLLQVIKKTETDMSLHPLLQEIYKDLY
T2 sequence (P19793 1-462 partner): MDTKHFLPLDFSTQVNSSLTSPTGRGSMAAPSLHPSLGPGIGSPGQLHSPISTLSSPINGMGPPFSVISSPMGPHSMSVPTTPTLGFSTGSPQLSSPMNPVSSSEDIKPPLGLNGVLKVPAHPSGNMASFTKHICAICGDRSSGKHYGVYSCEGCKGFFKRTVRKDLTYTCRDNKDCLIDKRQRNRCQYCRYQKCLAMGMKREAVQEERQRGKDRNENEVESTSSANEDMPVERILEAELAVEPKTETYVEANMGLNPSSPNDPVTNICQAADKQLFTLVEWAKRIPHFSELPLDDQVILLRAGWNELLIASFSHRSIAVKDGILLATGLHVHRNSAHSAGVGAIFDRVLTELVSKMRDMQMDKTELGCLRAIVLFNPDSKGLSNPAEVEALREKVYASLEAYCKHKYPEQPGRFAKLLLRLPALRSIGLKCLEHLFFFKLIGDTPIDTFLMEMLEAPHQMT
The experiment is described as follows: Evaluation of PPARγ activating action (luciferase reporter in PPARγ:RXRα:4ERPP/CHO-K1 cells). It is filed as cell-based. Conditions: CHO-K1, 24 h, read-out: PPARγ activating action (activation % (10^−6 M)). The procedure, abridged: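 CHO-K1 cells stably carrying PPARγ, RXRα and a 4ERPP luciferase reporter were treated with compound for 1 day at 37 °C in F12 medium with 0.1% fatty acid-free BSA. Luciferase activity was read and scaled between no compound (0%) and reference agonist compound X at 1 μM (100%).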
For orientation: In a reporter assay the amount or activity of a reporter protein is the signal.

[3] abbreviates: test compound 10^−6 M, luciferase activity relative to control compound X (1 μM) = 100%, non-administration group = 0%.

Counter-ions that a name gives are not always drawn. Like-named read-outs stand apart in the source and are kept apart here.

Usually IC50 stands for the concentration at which inhibition is half-maximal. On to `C=COc1ccc(-n2c(C)nc(CCC)c(Cc3ccc(-c4ccccc4-c4noc(=O)[nH]4)cc3F)c2=O)cc1` [Example 408, 5-{[3-fluoro-2′-(5-oxo-4,5-dihydro-1,2,4-oxadiazol-3-yl)biphenyl-4-yl]methyl}-2-methyl-6-propyl-3-[4-(vinyloxy)phenyl]pyrimidin-4(3H)-one], for which the IC50 in experiment [1] was determined as 1.4 nM. Further, in experiment [2] (setting [3]), the activation at 1 µM was 48.7%.
Regarding `CCCc1nc(C)n(-c2ccc3c(c2)C(=O)CC(C)(C)O3)c(=O)c1Cc1ccc(-c2ccccc2-c2noc(=O)[nH]2)cc1` [Example 145, 3-(2,2-dimethyl-4-oxo-3,4-dihydro-2H-chromen-6-yl)-2-methyl-5-{[2′-(5-oxo-4,5-dihydro-1,2,4-oxadiazol-3-yl)biphenyl-4-yl]methyl}-6-propylpyrimidin-4(3H)-one], the IC50 in experiment [1] is 1.8 nM. Further, the activation at 1 µM in experiment [2] (setting [3]) is 36.5%.
In the case of `CCCc1nc(CC)c(Oc2cccc(OC)c2)c(=O)n1Cc1ccc(-c2ccccc2-c2noc(O)n2)cc1` [Example 488, 6-ethyl-5-(3-methoxyphenoxy)-3-{[2′-(5-oxo-4,5-dihydro-1,2,4-oxadiazol-3-yl)biphenyl-4-yl]methyl}-2-propylpyrimidin-4(3H)-one potassium salt], the IC50 in experiment [1] amounted to 1.9 nM. Also, the activation at 1 µM in experiment [2] worked out at 16.7%.
Regarding `CCCc1nc(C)n(-c2ccc(OC(C)C)cc2)c(=O)c1Cc1ccc(-c2ccccc2-c2noc(=O)[nH]2)c(F)c1` [Example 401, 5-{[2-fluoro-2′-(5-oxo-4,5-dihydro-1,2,4-oxadiazol-3-yl)biphenyl-4-yl]methyl}-3-(4-isopropoxyphenyl)-2-methyl-6-propylpyrimidin-4(3H)-one], in experiment [1], the IC50 was 1.5 nM. Also, the activation at 1 µM in experiment [2] (setting [3]) is 25.3%.
The corresponding values for `CCCc1nc(C)n(-c2ccc(OC3CCCC3)cc2)c(=O)c1Cc1ccc(-c2ccccc2-c2noc(=O)[nH]2)cc1` [Example 319, 3-[4-(cyclopentyloxy)phenyl]-2-methyl-5-{[2′-(5-oxo-4,5-dihydro-1,2,4-oxadiazol-3-yl)biphenyl-4-yl]methyl}-6-propylpyrimidin-4(3H)-one] are 1.8 nM and 17.2%.
On to `CCCCc1nc(C2CC2)n(-c2ccccc2)c(=O)c1Cc1ccc(-c2ccccc2-c2noc(=O)[nH]2)cc1` [Example 310, 6-butyl-2-cyclopropyl-5-{[2′-(5-oxo-4,5-dihydro-1,2,4-oxadiazol-3-yl)biphenyl-4-yl]methyl}-3-phenylpyrimidin-4(3H)-one potassium salt], for which the IC50 in experiment [1] was found to be 1.9 nM. Besides, the activation at 1 µM in experiment [2] is 27.1%.
For the compound `CCCOc1ccc(-n2c(C)nc(CCC)c(Cc3ccc(-c4ccccc4-c4noc(=O)[nH]4)cc3)c2=O)cc1` [Example 249, 2-methyl-5-{[2′-(5-oxo-4,5-dihydro-1,2,4-oxadiazol-3-yl)biphenyl-4-yl]methyl}-3-(4-propoxyphenyl)-6-propylpyrimidin-4(3H)-one], the IC50 in experiment [1] stood at 1.6 nM. For the same compound, the activation at 1 µM in experiment [2] (setting [3]) was found to be 30.5%.
For `CCCc1nc(CC)n(-c2ccc(OC(COCC)COCC)cc2)c(=O)c1Cc1ccc(-c2ccccc2-c2noc(=O)[nH]2)cc1` [Example 395, 3-{4-[2-ethoxy-1-(ethoxymethyl)ethoxy]phenyl}-2-ethyl-5-{[2′-(5-oxo-4,5-dihydro-1,2,4-oxadiazol-3-yl)biphenyl-4-yl]methyl}-6-propylpyrimidin-4(3H)-one] the same measures were 1.7 nM and 16%.
Regarding `CCCc1nc(CC)n(-c2ccc(OC3CCOC(C)C3)cc2)c(=O)c1Cc1ccc(-c2ccccc2-c2noc(=O)[nH]2)cc1` (stereo not shown) [Example 424, 2-ethyl-3-{4-[(2-methyltetrahydro-2H-pyran-4-yl)oxy]phenyl}-5-{[2′-(5-oxo-4,5-dihydro-1,2,4-oxadiazol-3-yl)biphenyl-4-yl]methyl}-6-propylpyrimidin-4(3H)-one], in experiment [1], the half-maximal inhibitory concentration (IC50) amounted to 1.3 nM. For the same compound, the activation at 1 µM in experiment [2] (setting [3]) was determined as 33.5%.
Regarding `CCCc1nc(CC)n(-c2ccc3c(c2)CCO3)c(=O)c1Cc1ccc(-c2ccccc2-c2noc(O)n2)cc1` [Example 311, 3-(2,3-dihydro-1-benzofuran-5-yl)-2-ethyl-5-{[2′-(5-oxo-4,5-dihydro-1,2,4-oxadiazol-3-yl)biphenyl-4-yl]methyl}-6-propylpyrimidin-4(3H)-one potassium salt], the IC50 in experiment [1] was determined as 1.6 nM. Moreover, the activation at 1 µM in experiment [2] turned out to be 38.1%.
On to `CCCc1nc(OC)n(-c2ccc(O[C@@H]3C[C@@H](C)O[C@@H](C)C3)cc2)c(=O)c1Cc1ccc(-c2ccccc2-c2noc(=O)[nH]2)cc1` [Example 388, 3-(4-{[(2R,4s,6S)-2,6-dimethyltetrahydro-2H-pyran-4-yl]oxy}phenyl)-2-methoxy-5-{-[2′-(5-oxo-4.,5-dihydro-1,2,4-oxadiazol-3-yl)biphenyl-4-yl]methyl}-6-propylpyrimidin-4(3H)-one], for which the IC50 in experiment [1] is 1.6 nM. For the same compound, in experiment [2] (setting [3]), the activation at 1 µM worked out at 34.4%.
In the case of `CCCc1nc(C)n(-c2ccc(OC3CCC(=O)C(C)C3)cc2)c(=O)c1Cc1ccc(-c2ccccc2-c2noc(O)n2)cc1` (stereo not shown) [Example 356, 2-methyl-3-{4-[(3-methyl-4-oxocyclohexyl)oxy]phenyl}-5-{[2′-(5-oxo-4,5-dihydro-1,2,4-oxadiazol-3-yl)biphenyl-4-yl]methyl}-6-propylpyrimidin-4(3H)-one], the IC50 in experiment [1] is 1.1 nM. In experiment [2] (setting [3]), the activation at 1 µM turned out to be 16.6%.
As to `CCCc1nc(C)n(-c2ccc(OC(C)C)cc2)c(=O)c1Cc1ccc(-c2ccccc2-c2noc(=O)[nH]2)cc1Cl` [Example 396, 5-{[3-chloro-2′-(5-oxo-4,5-dihydro-1,2,4-oxadiazol-3-yl)biphenyl-4-yl]methyl}-3-(4-isopropoxyphenyl)-2-methyl-6-propylpyrimidin-4(3H)-one], the IC50 in experiment [1] came to 2.2 nM. For the same compound, the activation at 1 µM in experiment [2] (setting [3]) was 50.6%.
Regarding `CCCc1nc(C)n(-c2ccc3c(c2)C=CC(C)(C)O3)c(=O)c1Cc1ccc(-c2ccccc2-c2noc(=O)[nH]2)cc1` [Example 142, 3-(2,2-dimethyl-2H-chromen-6-yl)-2-methyl-5-{[2′-(5-oxo-4,5-dihydro-1,2,4-oxadiazol-3-yl)biphenyl-4-yl]methyl}-6-propylpyrimidin-4(3H)-one], the IC50 in experiment [1] came out at 1.7 nM. Further, the activation at 1 µM in experiment [2] (setting [3]) worked out at 32.8%.
As for `CCCCc1nc(C)n(CCCC)c(=O)c1Cc1ccc(-c2ccccc2-c2noc(=O)[nH]2)cc1` [Example 294, 3,6-dibutyl-2-methyl-5-{[2′-(5-oxo-4,5-dihydro-1,2,4-oxadiazol-3-yl)biphenyl-4-yl]methyl}pyrimidin-4(3H)-one], the IC50 in experiment [1] was determined as 1.8 nM. The activation at 1 µM in experiment [2] (setting [3]) came to 47.1%.
Consider `CCCc1nc(C)n(CC2CCCCO2)c(=O)c1Cc1ccc(-c2ccccc2-c2noc(=O)[nH]2)cc1` (stereo not shown) [Example 81, 2-methyl-5-{[2′-(5-oxo-4,5-dihydro-1,2,4-oxadiazol-3-yl)biphenyl-4-yl]methyl}-6-propyl-3-(tetrahydro-2H-pyran-2-ylmethyl)pyrimidin-4(3H)-one], for which the IC50 in experiment [1] worked out at 1.6 nM. Also, in experiment [2] (setting [3]), the activation at 1 µM was found to be 62.9%.
Turning to `CCCCc1nc(C)n(-c2ccc(OC(C)(C)COC)cc2)c(=O)c1Cc1ccc(-c2ccccc2-c2noc(=O)[nH]2)cc1` [Example 427, 6-butyl-3-[4-(2-methoxy-1,1-dimethylethoxy)phenyl]-2-methyl-5-{[2′-(5-oxo-4,5-dihydro-1,2,4-oxadiazol-3-yl)biphenyl-4-yl]methyl}pyrimidin-4(3H)-one], the IC50 in experiment [1] was found to be 1.4 nM. The activation at 1 µM in experiment [2] (setting [3]) was determined as 17.7%.
